According to patent publication US7598417B2, “Substituted fluoroethyl ureas as alpha 2 adrenergic agents” (Allergan, Inc., priority 2007, dated 2009):

Columns and labels:
Format in all cases: cell-based
[1] = target: T1, alpha2B receptor (Homo sapiens, UniProt P18089); test: Receptor Selection and Amplification Technology (RSAT) assay, alpha2B; conditions: for EC50: RSAT, NIH-3T3 cells cotransfected with receptor and Gq/i5, not active = not active at concentrations less than 10 micromolar, read-out: Alpha 2B EC50; for Alpha 2B IA (intrinsic activity): ratio of maximal effect of the drug to maximal effect of standard full agonist brimonidine (UK14304)
T1 construct: expressed in transfected cells; host or cells: NIH-3T3
T1 sequence (P18089 1-450): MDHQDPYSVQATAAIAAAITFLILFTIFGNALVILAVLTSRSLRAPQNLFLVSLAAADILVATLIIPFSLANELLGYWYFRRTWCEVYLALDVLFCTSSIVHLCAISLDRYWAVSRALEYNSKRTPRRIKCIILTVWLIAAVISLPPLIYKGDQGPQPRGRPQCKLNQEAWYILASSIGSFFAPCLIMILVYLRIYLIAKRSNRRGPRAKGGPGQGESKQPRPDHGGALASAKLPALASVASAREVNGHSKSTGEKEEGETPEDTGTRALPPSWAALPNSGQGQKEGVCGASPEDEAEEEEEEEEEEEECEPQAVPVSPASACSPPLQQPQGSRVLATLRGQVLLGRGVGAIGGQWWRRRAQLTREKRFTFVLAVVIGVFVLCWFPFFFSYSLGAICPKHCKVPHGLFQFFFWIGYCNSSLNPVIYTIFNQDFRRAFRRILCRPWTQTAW
Protocol: (§1) Receptor Selection and Amplification Technology (RSAT) Assay
(§2) The RSAT assay measures a receptor-mediated loss of contact inhibition that results in selective proliferation of receptor-containing cells in a mixed population of confluent cells. The increase in cell number is assessed with an appropriate transfected marker gene such as β-galactosidase, the activity of which can be easily measured in a 96-well format. Receptors that activate the G protein, Gq, elicit this response. Alpha2 receptors, which normally couple to Gi, activate the RSAT response when coexpressed with a hybrid Gq protein that has a Gi receptor recognition domain, called Gq/i5.
(§3) NIH-3T3 cells are plated at a density of 2×10^6 cells in 15 cm dishes and maintained in Dulbecco's modified Eagle's medium supplemented with 10% calf serum. One day later, cells are cotransfected by calcium phosphate precipitation with mammalian expression plasmids encoding p-SV-β-galactosidase (5-10 μg), receptor (1-2 μg) and G protein (1-2 μg). 40 μg salmon sperm DNA may also be included in the transfection mixture. Fresh media is added on the following day and 1-2 days later, cells are harvested and frozen in 50 assay aliquots. Cells are thawed and 100 μl added to 100 μl aliquots of various concentrations of drugs in triplicate in 96-well dishes. Incubations continue 72-96 hr at 37° C. After washing with phosphate-buffered saline, β-galactosidase enzyme activity is determined by adding 200 μl of the chromogenic substrate (consisting of 3.5 mM o-nitrophenyl-β-D-galactopyranoside and 0.5% nonidet P-40 in phosphate buffered saline), incubating overnight at 30° C. and measuring optical density at 420 nm. The absorbance is a measure of enzyme activity, which depends on cell number and reflects a receptor-mediated cell proliferation. The efficacy or intrinsic activity is calculated as a ratio of the maximal effect of the drug to the maximal effect of a standard full agonist for each receptor subtype. Brimonidine, also called UK14304, the chemical structure of which is shown below, is used as the standard agonist for the alpha2A, alpha2B and alpha2C receptors. The EC50 is the concentration at which the drug effect is half of its maximal effect.
The results of the RSAT assay with several exemplary compounds of the invention are disclosed in Table 1 above together with the chemical formulas of these exemplary compounds. EC50 values are nanomolar. NA stands for “not active” at concentrations less than 10 micromolar. IA stands for “intrinsic activity.”

[2] = target: T2, alpha2A receptor (Homo sapiens, UniProt P08913); test: Receptor Selection and Amplification Technology (RSAT) assay, alpha2A; conditions: for EC50: RSAT, NIH-3T3 cells cotransfected with receptor and Gq/i5, not active = not active at concentrations less than 10 micromolar, read-out: Alpha 2A EC50; for Alpha 2A IA (intrinsic activity): ratio of maximal effect of the drug to maximal effect of standard full agonist brimonidine (UK14304)
T2 construct: expressed in transfected cells; host or cells: NIH-3T3
T2 sequence (P08913 1-465): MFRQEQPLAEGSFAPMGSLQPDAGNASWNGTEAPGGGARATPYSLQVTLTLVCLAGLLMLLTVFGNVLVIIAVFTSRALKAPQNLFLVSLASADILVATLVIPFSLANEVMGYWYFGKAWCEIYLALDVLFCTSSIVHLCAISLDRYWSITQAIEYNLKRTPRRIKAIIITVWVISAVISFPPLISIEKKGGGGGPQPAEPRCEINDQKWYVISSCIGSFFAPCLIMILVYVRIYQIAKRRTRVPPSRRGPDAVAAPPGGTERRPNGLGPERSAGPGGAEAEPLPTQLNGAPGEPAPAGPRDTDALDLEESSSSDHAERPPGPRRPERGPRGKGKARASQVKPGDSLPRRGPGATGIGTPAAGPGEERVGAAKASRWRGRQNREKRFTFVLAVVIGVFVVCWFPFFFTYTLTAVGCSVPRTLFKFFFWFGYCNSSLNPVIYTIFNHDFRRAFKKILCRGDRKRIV
Protocol: as §1, §2, §3
(§4) EC50 values are nanomolar. NA stands for “not active” at concentrations less than 10 micromolar. IA stands for “intrinsic activity.”

[3] = target: T3, alpha2C receptor (Homo sapiens, UniProt P18825); test: Receptor Selection and Amplification Technology (RSAT) assay, alpha2C; conditions: for EC50: read-out: Alpha 2C EC50; for Alpha 2C IA (intrinsic activity): ratio of maximal effect of the drug to maximal effect of standard full agonist brimonidine (UK14304)
T3 construct: expressed in transfected cells; host or cells: NIH-3T3
T3 sequence (P18825 1-462): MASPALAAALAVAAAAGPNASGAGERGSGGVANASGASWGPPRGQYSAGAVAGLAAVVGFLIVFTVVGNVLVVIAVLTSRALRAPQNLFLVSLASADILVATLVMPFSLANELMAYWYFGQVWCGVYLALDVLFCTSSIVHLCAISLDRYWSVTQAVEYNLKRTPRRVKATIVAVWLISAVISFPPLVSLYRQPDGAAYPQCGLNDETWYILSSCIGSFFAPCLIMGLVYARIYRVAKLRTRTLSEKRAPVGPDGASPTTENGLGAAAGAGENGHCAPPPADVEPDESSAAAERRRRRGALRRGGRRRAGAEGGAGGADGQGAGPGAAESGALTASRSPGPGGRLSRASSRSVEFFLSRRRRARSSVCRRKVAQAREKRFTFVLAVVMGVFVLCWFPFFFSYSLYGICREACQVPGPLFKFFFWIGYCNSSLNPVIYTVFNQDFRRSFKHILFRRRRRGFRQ
Protocol: as §1, §2, §3, §4

[4] = RSAT, NIH-3T3 cells cotransfected with receptor and Gq/i5, not active = not active at concentrations less than 10 micromolar

SMILES: Cc1cccc2c1CCC2NC(=O)NCCF (centres unmarked)
- EC50 [1]: 1.2 nM
- Alpha 2B IA (intrinsic activity) [1]: 1.1
- EC50 [2]: 120 nM
- Alpha 2A IA (intrinsic activity) [2]: 0.59
- EC50 [3, 4]: 67.2 nM
- Alpha 2C IA (intrinsic activity) [3]: 0.79

SMILES: CCC[C@@H]1CCCC[C@H]1NC(=O)NCCF
- EC50 [1]: 1740 nM
- Alpha 2B IA (intrinsic activity) [1]: 0.84
- EC50 [2]: 1470 nM
- Alpha 2A IA (intrinsic activity) [2]: 0.4
- Alpha 2C EC50 [3, 4]: not active

SMILES: COc1cccc2c1CCCC2NC(=O)NCCF (centres unmarked)
- EC50 [1]: 291 nM
- Alpha 2B IA (intrinsic activity) [1]: 0.84
- EC50 [2]: 2350 nM
- Alpha 2A IA (intrinsic activity) [2]: 0.37
- EC50 [3, 4]: 872 nM
- Alpha 2C IA (intrinsic activity) [3]: 0.51

SMILES: CC1CCC(NC(=O)NCCF)c2ccccc21 (centres unmarked)
- EC50 [1]: 21 nM
- Alpha 2B IA (intrinsic activity) [1]: 0.89
- EC50 [2]: 331 nM
- Alpha 2A IA (intrinsic activity) [2]: 0.34
- EC50 [3, 4]: 282 nM
- Alpha 2C IA (intrinsic activity) [3]: 0.45

SMILES: O=C(NCCF)NC1CCCCc2ccc(F)cc21 (centres unmarked)
- EC50 [1]: 913 nM
- Alpha 2B IA (intrinsic activity) [1]: 0.54
- EC50 [2]: > 2000 nM
- Alpha 2A IA (intrinsic activity) [2]: 0.31
- EC50 [3, 4]: 341 nM
- Alpha 2C IA (intrinsic activity) [3]: 0.3

SMILES: Cc1cc(C)c2c(c1)C(NC(=O)NCCF)CCC2 (centres unmarked)
- EC50 [1]: 27 nM
- Alpha 2B IA (intrinsic activity) [1]: 0.91
- EC50 [2]: 109 nM
- Alpha 2A IA (intrinsic activity) [2]: 0.49
- EC50 [3, 4]: 391 nM
- Alpha 2C IA (intrinsic activity) [3]: 0.58

SMILES: O=C(NCCF)NC1CCCCc2ccccc21 (centres unmarked)
- EC50 [1]: 212 nM
- Alpha 2B IA (intrinsic activity) [1]: 0.65
- EC50 [2]: 534 nM
- Alpha 2A IA (intrinsic activity) [2]: 0.3
- EC50 [3, 4]: 967 nM
- Alpha 2C IA (intrinsic activity) [3]: 0.5

SMILES: COc1cccc2c1CCC2NC(=O)NCCF (centres unmarked)
- EC50 [1]: 121 nM
- Alpha 2B IA (intrinsic activity) [1]: 0.72
- EC50 [2]: 2070 nM
- Alpha 2A IA (intrinsic activity) [2]: 0.48
- EC50 [3, 4]: 1110 nM
- Alpha 2C IA (intrinsic activity) [3]: 0.59

SMILES: COc1cccc2c1C(NC(=O)NCCF)CC2 (centres unmarked)
- EC50 [1]: 544 nM
- Alpha 2B IA (intrinsic activity) [1]: 0.63
- EC50 [2]: 277 nM
- Alpha 2A IA (intrinsic activity) [2]: 0.48
- EC50 [3, 4]: 972 nM
- Alpha 2C IA (intrinsic activity) [3]: 0.54

SMILES: Cc1cccc2c1C(NC(=O)NCCF)CC2 (centres unmarked)
- EC50 [1]: 26.8 nM
- Alpha 2B IA (intrinsic activity) [1]: 0.6
- EC50 [2]: 189 nM
- Alpha 2A IA (intrinsic activity) [2]: 0.43
- EC50 [3, 4]: 197 nM
- Alpha 2C IA (intrinsic activity) [3]: 0.62

SMILES: O=C(NCCF)N[C@@H]1CCc2ccccc21
- EC50 [1]: 565 nM
- Alpha 2B IA (intrinsic activity) [1]: 0.55
- EC50 [2]: 693 nM
- Alpha 2A IA (intrinsic activity) [2]: 0.36
- EC50 [3, 4]: 1820 nM
- Alpha 2C IA (intrinsic activity) [3]: 0.61

SMILES: CC1=C(C)C(NC(=O)NCCF)CC1 (centres unmarked)
- EC50 [1]: 37 nM
- Alpha 2B IA (intrinsic activity) [1]: 1.07
- EC50 [2]: 586 nM
- Alpha 2A IA (intrinsic activity) [2]: 0.36
- EC50 [3, 4]: 214 nM
- Alpha 2C IA (intrinsic activity) [3]: 0.64

SMILES: O=C(NCCF)NC1CCc2cccc(F)c21 (centres unmarked)
- EC50 [1]: 8.8 nM
- Alpha 2B IA (intrinsic activity) [1]: 1.08
- EC50 [2]: 59.6 nM
- Alpha 2A IA (intrinsic activity) [2]: 0.41
- EC50 [3, 4]: 95.4 nM
- Alpha 2C IA (intrinsic activity) [3]: 0.55

SMILES: O=C(NCCF)NC1CCc2cccc(Br)c21 (centres unmarked)
- EC50 [1]: 20 nM
- Alpha 2B IA (intrinsic activity) [1]: 1.01
- EC50 [2]: 111 nM
- Alpha 2A IA (intrinsic activity) [2]: 0.52
- EC50 [3, 4]: 716 nM
- Alpha 2C IA (intrinsic activity) [3]: 0.97

SMILES: O=C(NCCF)NC1CCc2cccc(Cl)c21 (centres unmarked)
- EC50 [1]: 7.2 nM
- Alpha 2B IA (intrinsic activity) [1]: 1.05
- EC50 [2]: 29 nM
- Alpha 2A IA (intrinsic activity) [2]: 0.68
- EC50 [3, 4]: 103 nM
- Alpha 2C IA (intrinsic activity) [3]: 0.78

SMILES: O=C(NCCF)NC1CCc2c(OC(=O)c3ccccc3)cccc21 (centres unmarked)
- EC50 [1]: 8.3 nM
- Alpha 2B IA (intrinsic activity) [1]: 0.95
- EC50 [2]: 95 nM
- Alpha 2A IA (intrinsic activity) [2]: 0.62
- EC50 [3, 4]: 102 nM
- Alpha 2C IA (intrinsic activity) [3]: 0.73

SMILES: O=C(NCCF)NC1CCc2c(O)cccc21 (centres unmarked)
- EC50 [1]: 9.6 nM
- Alpha 2B IA (intrinsic activity) [1]: 0.96
- EC50 [2]: 186 nM
- Alpha 2A IA (intrinsic activity) [2]: 0.53
- EC50 [3, 4]: 73 nM
- Alpha 2C IA (intrinsic activity) [3]: 0.73

SMILES: Nc1cccc2c1CCC2NC(=O)NCCF (centres unmarked)
- EC50 [1]: 36.6 nM
- Alpha 2B IA (intrinsic activity) [1]: 1.0
- EC50 [2]: 429 nM
- Alpha 2A IA (intrinsic activity) [2]: 0.48
- EC50 [3, 4]: 1300 nM
- Alpha 2C IA (intrinsic activity) [3]: 0.54

SMILES: O=C(NCCF)NC1CCc2ncccc21 (centres unmarked)
- EC50 [1]: 100 nM
- Alpha 2B IA (intrinsic activity) [1]: 1.08
- EC50 [2]: 2550 nM
- Alpha 2A IA (intrinsic activity) [2]: 0.55
- EC50 [3, 4]: 2460 nM
- Alpha 2C IA (intrinsic activity) [3]: 0.41
